Assay results taken from ChEMBL document CHEMBL1275492, “In vitro activity of ceftobiprole against pathogens from two phase 3 clinical trials of complicated skin and skin structure infections” (2008).
In brackets after ≈: the same amount, converted by molar mass.

Assays:
Format in all cases: functional
Staphylococcus aureus [1] = test: Antibacterial activity against Staphylococcus aureus obtained from complicated skin and skin structure infections by agar dilution method
Staphylococcus aureus [2] = test: Antibacterial activity against methicillin resistant Staphylococcus aureus obtained from complicated skin and skin structure infections by agar dilution method
Staphylococcus aureus [3] = test: Antibacterial activity against methicillin susceptible Staphylococcus aureus obtained from complicated skin and skin structure infections by agar dilution method
[4] = system: Staphylococcus epidermidis; test: Antibacterial activity against coagulase-negative Staphylococcus epidermidis obtained from complicated skin and skin structure infections by agar dilution method
[5] = system: Staphylococcus haemolyticus; test: Antibacterial activity against coagulase-negative Staphylococcus haemolyticus obtained from complicated skin and skin structure infections by agar dilution method
[6] = system: Staphylococcus lugdunensis; test: Antibacterial activity against coagulase-negative Staphylococcus lugdunensis obtained from complicated skin and skin structure infections by agar dilution method
Staphylococcus hominis = test: Antibacterial activity against coagulase-negative Staphylococcus hominis obtained from complicated skin and skin structure infections by agar dilution method
Staphylococcus capitis = test: Antibacterial activity against coagulase-negative Staphylococcus capitis obtained from complicated skin and skin structure infections by agar dilution method
[7] = system: Staphylococcus saprophyticus; test: Antibacterial activity against coagulase-negative Staphylococcus saprophyticus obtained from complicated skin and skin structure infections by agar dilution method
Staphylococcus cohnii = test: Antibacterial activity against coagulase-negative Staphylococcus cohnii obtained from complicated skin and skin structure infections by agar dilution method
Mammaliicoccus sciuri = test: Antibacterial activity against coagulase-negative Staphylococcus sciuri obtained from complicated skin and skin structure infections by agar dilution method
Staphylococcus warneri = test: Antibacterial activity against coagulase-negative Staphylococcus warneri obtained from complicated skin and skin structure infections by agar dilution method
[8] = system: Staphylococcus lugdunensis; test: Antibacterial activity against methicillin-resistant, oxacillin-susceptible, coagulase-negative, mecA-positive Staphylococcus lugdunensis obtained from complicated skin and skin structure infections by agar dilution method
Staphylococcus = test: Antibacterial activity against methicillin-susceptible, coagulase-negative Staphylococcus obtained from complicated skin and skin structure infections by agar dilution method
Enterococcus faecalis = test: Antibacterial activity against Enterococcus faecalis obtained from complicated skin and skin structure infections by agar dilution method
Enterococcus faecium = test: Antibacterial activity against Enterococcus faecium obtained from complicated skin and skin structure infections by agar dilution method
Streptococcus agalactiae = test: Antibacterial activity against Streptococcus agalactiae obtained from complicated skin and skin structure infections by agar dilution method
Streptococcus pyogenes = test: Antibacterial activity against Streptococcus pyogenes obtained from complicated skin and skin structure infections by agar dilution method
[9] = Antibacterial activity against Streptococcus sp. 'group C' obtained from complicated skin and skin structure infections by agar dilution method
[10] = Antibacterial activity against Streptococcus sp. 'group G' obtained from complicated skin and skin structure infections by agar dilution method
[11] = system: Streptococcus constellatus; test: Antibacterial activity against Streptococcus constellatus obtained from complicated skin and skin structure infections by agar dilution method
Streptococcus mitis = test: Antibacterial activity against Streptococcus mitis obtained from complicated skin and skin structure infections by agar dilution method
[12] = system: Staphylococcus intermedius; test: Antibacterial activity against Staphylococcus intermedius obtained from complicated skin and skin structure infections by agar dilution method
Aerococcus viridans = test: Antibacterial activity against Aerococcus viridans obtained from complicated skin and skin structure infections by agar dilution method
Bacillus = test: Antibacterial activity against Bacillus spp. obtained from complicated skin and skin structure infections by agar dilution method
Gemella morbillorum = test: Antibacterial activity against Gemella morbillorum obtained from complicated skin and skin structure infections […]
Gemella = test: Antibacterial activity against Gemella spp. obtained from complicated skin and skin structure infections by agar dilution method
Lactococcus lactis = test: Antibacterial activity against Lactococcus lactis obtained from complicated skin and skin structure infections by agar dilution method
Micrococcus = test: Antibacterial activity against Micrococcus spp. obtained from complicated skin and skin structure infections by agar dilution method

CN[C@H](CC(C)C)C(=O)N[C@H]1C(=O)N[C@@H](CC(N)=O)C(=O)N[C@H]2C(=O)N[C@H]3C(=O)N[C@H](C(=O)N[C@H](C(=O)O)c4cc(O)cc(O)c4-c4cc3ccc4O)[C@H](O)c3ccc(c(Cl)c3)Oc3cc2cc(c3O[C@@H]2O[C@H](CO)[C@@H](O)[C@H](O)[C@H]2O[C@H]2C[C@](C)(N)[C@H](O)[C@H](C)O2)Oc2ccc(cc2Cl)[C@H]1O [VANCOMYCIN]
MIC50 (Staphylococcus aureus [1]): 1 µg/mL (≈ 0.69 µM)
MIC90 (Staphylococcus aureus [1]): 1 µg/mL (≈ 0.69 µM)
MIC50 (Staphylococcus aureus [2]): 1 µg/mL (≈ 0.69 µM)
MIC90 (Staphylococcus aureus [2]): 1 µg/mL (≈ 0.69 µM)
MIC50 (Staphylococcus aureus [3]): 1 µg/mL (≈ 0.69 µM)
MIC90 (Staphylococcus aureus [3]): 1 µg/mL (≈ 0.69 µM)
MIC50 [4]: 1 µg/mL (≈ 0.69 µM)
MIC90 [4]: 2 µg/mL (≈ 1.38 µM)
MIC50 [5]: 1 µg/mL (≈ 0.69 µM)
MIC90 [5]: 2 µg/mL (≈ 1.38 µM)
MIC50 [6]: 1 µg/mL (≈ 0.69 µM)
MIC90 [6]: 2 µg/mL (≈ 1.38 µM)
MIC50 (Staphylococcus hominis): 1 µg/mL (≈ 0.69 µM)
MIC90 (Staphylococcus hominis): 2 µg/mL (≈ 1.38 µM)
MIC50 (Staphylococcus capitis): 1 µg/mL (≈ 0.69 µM)
MIC90 (Staphylococcus capitis): 2 µg/mL (≈ 1.38 µM)
MIC50 [7]: 1 µg/mL (≈ 0.69 µM)
MIC90 [7]: 2 µg/mL (≈ 1.38 µM)
MIC50 (Staphylococcus cohnii): 1 µg/mL (≈ 0.69 µM)
MIC90 (Staphylococcus cohnii): 2 µg/mL (≈ 1.38 µM)
MIC50 (Mammaliicoccus sciuri): 1 µg/mL (≈ 0.69 µM)
MIC90 (Mammaliicoccus sciuri): 2 µg/mL (≈ 1.38 µM)
MIC50 (Staphylococcus warneri): 1 µg/mL (≈ 0.69 µM)
MIC90 (Staphylococcus warneri): 2 µg/mL (≈ 1.38 µM)
MIC50 [8]: 1 µg/mL (≈ 0.69 µM)
MIC90 [8]: 2 µg/mL (≈ 1.38 µM)
MIC50 (Staphylococcus): 1 µg/mL (≈ 0.69 µM)
MIC90 (Staphylococcus): 2 µg/mL (≈ 1.38 µM)
MIC (Enterococcus faecalis): 1 µg/mL (≈ 0.69 µM)
MIC50 (Enterococcus faecalis): 1 µg/mL (≈ 0.69 µM)
MIC90 (Enterococcus faecalis): 2 µg/mL (≈ 1.38 µM)
MIC50 (Enterococcus faecium): 1 µg/mL (≈ 0.69 µM)
MIC50 (Streptococcus agalactiae): 0.5 µg/mL (≈ 0.345 µM)
MIC90 (Streptococcus agalactiae): 0.5 µg/mL (≈ 0.345 µM)
MIC50 (Streptococcus pyogenes): 0.5 µg/mL (≈ 0.345 µM)
MIC90 (Streptococcus pyogenes): 0.5 µg/mL (≈ 0.345 µM)
MIC50 [9]: 0.5 µg/mL (≈ 0.345 µM)
MIC90 [9]: 1 µg/mL (≈ 0.69 µM)
MIC [10]: 0.25 µg/mL (≈ 0.173 µM)
MIC50 [10]: 0.25 µg/mL (≈ 0.173 µM)
MIC90 [10]: 0.5 µg/mL (≈ 0.345 µM)
MIC50 [11]: 0.5 µg/mL (≈ 0.345 µM)
MIC90 [11]: 0.5 µg/mL (≈ 0.345 µM)
MIC50 (Streptococcus mitis): 1 µg/mL (≈ 0.69 µM)
MIC90 (Streptococcus mitis): 1 µg/mL (≈ 0.69 µM)
MIC50 [12]: 1 µg/mL (≈ 0.69 µM)
MIC90 [12]: 1 µg/mL (≈ 0.69 µM)
MIC50 (Aerococcus viridans): 1 µg/mL (≈ 0.69 µM)
MIC90 (Aerococcus viridans): 1 µg/mL (≈ 0.69 µM)
MIC50 (Bacillus): 1 µg/mL (≈ 0.69 µM)
MIC90 (Bacillus): 1 µg/mL (≈ 0.69 µM)
MIC50 (Gemella morbillorum): 1 µg/mL (≈ 0.69 µM)
MIC90 (Gemella morbillorum): 1 µg/mL (≈ 0.69 µM)
MIC50 (Gemella): 1 µg/mL (≈ 0.69 µM)
MIC90 (Gemella): 1 µg/mL (≈ 0.69 µM)
MIC50 (Lactococcus lactis): 1 µg/mL (≈ 0.69 µM)
MIC90 (Lactococcus lactis): 1 µg/mL (≈ 0.69 µM)
MIC50 (Micrococcus): 1 µg/mL (≈ 0.69 µM)
MIC90 (Micrococcus): 1 µg/mL (≈ 0.69 µM)
